From patent US9868746B2, “Substituted 5-aminothieno[2,3-C]pyridazine-6-carboxamide analogs as positive allosteric modulators of the muscarinic acetylcholine receptor M4” (Vanderbilt University, priority 2012, dated 2018)

Target: T1, mAChR M4 (Homo sapiens, UniProt P08173)
T1 construct: expressed in transfected cells; host or cells: CHO-K1 cells stably transfected with M4 cDNA and chimeric G-protein Gqi5
T1 sequence (P08173 1-479): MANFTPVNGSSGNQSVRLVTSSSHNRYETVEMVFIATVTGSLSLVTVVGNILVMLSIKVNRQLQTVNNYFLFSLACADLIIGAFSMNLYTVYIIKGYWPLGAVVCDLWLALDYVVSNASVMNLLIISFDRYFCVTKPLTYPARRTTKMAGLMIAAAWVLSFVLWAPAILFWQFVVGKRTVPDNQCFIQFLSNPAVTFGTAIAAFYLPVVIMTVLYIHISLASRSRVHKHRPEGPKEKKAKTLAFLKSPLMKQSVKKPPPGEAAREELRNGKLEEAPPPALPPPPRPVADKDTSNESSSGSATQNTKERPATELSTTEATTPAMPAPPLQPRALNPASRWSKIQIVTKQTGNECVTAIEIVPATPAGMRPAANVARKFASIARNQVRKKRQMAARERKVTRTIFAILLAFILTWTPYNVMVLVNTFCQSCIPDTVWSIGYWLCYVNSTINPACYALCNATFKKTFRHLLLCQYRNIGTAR
Assay: mAChR M4 cell-based functional assay (calcium mobilization, potentiation of EC20 acetylcholine response)
Settings: for Emax at 30 µM: % ACh maximum at 30 μM; for EC50: mAChR M4 cell-based functional assay, >10,000 estimated for low potency compounds without plateau, read-out: EC50

Compound | Emax at 30 µM [%] | EC50 [nM]
CC(=O)NCCNC(=O)c1sc2nnc(C)c(C)c2c1N [Example B366] | 32 | > 10000
Cc1nnc2sc(C(=O)NCCc3ccncc3)c(N)c2c1C [Example B93] | 49 | 2300
COC1(c2ccccc2)CN(C(=O)c2sc3nnc(C)c(C)c3c2N)C1 [Example B170] | 60 | 470
Cc1nnc2sc(C(=O)N3CCC(NC(=O)C4CC4)C3)c(N)c2c1C (centres unmarked) [Example B236] | 66 | 5000
Cc1nnc2sc(C(=O)Nc3nccs3)c(N)c2c1C [Example B70] | 37 | 1200
COC1(c2ccc(Cl)cc2)CN(C(=O)c2sc3nnc(C)c(C)c3c2N)C1 [Example B314] | 49 | 2800
Cc1nnc2sc(C(=O)NCc3ccc(-c4cnc5ccccc5c4)cc3)c(N)c2c1C [Example B497] | 46 | 710
COc1ccc(C(C)CNC(=O)c2sc3nnc(C)c(C)c3c2N)cc1 (centres unmarked) [Example B73] | 40 | 350
Cc1nnc2sc(C(=O)NC3CCOC3)c(N)c2c1C (centres unmarked) [Example B35] | 77 | 840
Cc1ccc(C(=O)NC2CCN(C(=O)c3sc4nnc(C)c(C)c4c3N)C2)cc1 (centres unmarked) [Example B225] | 62 | 1400
Cc1nnc2sc(C(=O)N3CC4CN(S(C)(=O)=O)CC4C3)c(N)c2c1C (centres unmarked) [Example B277] | 56 | > 10000
Cc1nnc2sc(C(=O)NC34CC(C3)C4)c(N)c2c1C [Example B248] | 81 | 630
Cc1nnc2sc(C(=O)N3CCC[C@H]3C)c(N)c2c1C [Example B382] | 45 | > 10000
Cc1nnc2sc(C(=O)N3CCCn4nccc43)c(N)c2c1C [Example B445] | 31 | > 10000
COc1cccc(C2(F)CN(C(=O)c3sc4nnc(C)c(C)c4c3N)C2)c1 [Example B300] | 52 | 330
Cc1nnc2sc(C(=O)NCCNC(=O)c3ccc(F)cc3)c(N)c2c1C [Example B340] | 38 | 370
Cc1nnc2sc(C(=O)NCc3ccncc3)c(N)c2c1C [Example B14] | 100 | 320
Cc1nnc2sc(C(=O)NCc3ccc(S(C)(=O)=O)cc3)c(N)c2c1C [Example B23] | 83 | 450
Cc1nnc2sc(C(=O)N3CC4CN(C(=O)C(C)C)CC4C3)c(N)c2c1C (centres unmarked) [Example B388] | 55 | > 10000

Compound | Emax at 30 µM [%] | EC50 [nM]
Cc1nnc2sc(C(=O)N3Cc4ccccc4C3)c(N)c2c1C [Example B280] | 46 | 1700
Cc1nnc2sc(C(=O)N3CC(c4ccccc4)(N(C)C)C3)c(N)c2c1C [Example B322] | 42 | 2200
Cc1nnc2sc(C(=O)N[C@H]3CCN(S(C)(=O)=O)C3)c(N)c2c1C [Example B82] | 59 | 460
COCCOCCNC(=O)c1sc2nnc(C)c(C)c2c1N [Example B199] | 52 | > 10000
Cc1nnc2sc(C(=O)NC3(c4ccc(F)cc4)CC3)c(N)c2c1C [Example B390] | 46 | > 10000
Cc1nnc2sc(C(=O)N3CC(C)(F)C3)c(N)c2c1C [Example B302] | 73 | 860
Cc1ccc(S(=O)(=O)N2CCC(NC(=O)c3sc4nnc(C)c(C)c4c3N)C2)s1 (centres unmarked) [Example B215] | 75 | 340
Cc1nnc2sc(C(=O)Nc3ccc4cn[nH]c4c3)c(N)c2c1C [Example B67] | 51 | 350
COC1(c2cccc(F)c2)CN(C(=O)c2sc3nnc(C)c(C)c3c2N)C1 [Example B299] | 35 | 350
Cc1nnc2sc(C(=O)N3CC(F)(c4ccc([S+](C)[O-])cc4)C3)c(N)c2c1C (centres unmarked) [Example B384] | 71 | 1100
Cc1nnc2sc(C(=O)N3CC(F)(c4ccc(S(=O)(=O)C(F)(F)F)cc4)C3)c(N)c2c1C [Example B378] | 46 | 4200
COc1ccc(C2(NC(=O)c3sc4nnc(C)c(C)c4c3N)CC2)cc1 [Example B301] | 48 | 6400
Cc1nnc2sc(C(=O)N3CC4CN(C(=O)c5ccc(F)cc5)CC4C3)c(N)c2c1C (centres unmarked) [Example B331] | 58 | 3600
Cc1nnc2sc(C(=O)N3CC(NS(C)(=O)=O)C3)c(N)c2c1C [Example B172] | 51 | > 10000
Cc1nnc2sc(C(=O)N3CCC(NC(=O)c4ccccc4)C3)c(N)c2c1C (centres unmarked) [Example B246] | 78 | 4600
Cc1nnc2sc(C(=O)NCC3CCS(=O)(=O)C3)c(N)c2c1C (centres unmarked) [Example B148] | 50 | > 10000
Nc1c(C(=O)NCc2ccccc2)sc2nnccc12 [Example B19] | 53 | > 10000
Nc1c(C(=O)NCc2ccc(S(=O)(=O)C(F)(F)F)cc2)sc2nnc3c(c12)CCCC3 [Example B189] | 42 | 420
Cc1nnc2sc(C(=O)N3CCC(NC(=O)N4CCOCC4)C3)c(N)c2c1C (centres unmarked) [Example B201] | 56 | > 10000

The next compounds have a lower EC50 than those just listed; values first:

Emax at 30 µM [%] | EC50 [nM] | Compound
62 | 290 | COc1ncc(CNC(=O)c2sc3nnc(C)c(C)c3c2N)cn1 [Example B399]
75 | 270 | Cc1nnc2sc(C(=O)NCc3ccc4nonc4c3)c(N)c2c1C [Example B43]
66 | 250 | Cc1nnc2sc(C(=O)NCc3ccc(-c4ccc5nccnc5c4)cc3)c(N)c2c1C [Example B496]
74 | 240 | Cc1nnc2sc(C(=O)NCc3ccc(-c4cccc5cccnc45)cc3)c(N)c2c1C [Example B453]
73 | 230 | Cc1nnc2sc(C(=O)NC3CN(C(=O)C4CC4)C3)c(N)c2c1C [Example B135]
78 | 230 | COc1cccc(C(=O)N2CCC(NC(=O)c3sc4nnc(C)c(C)c4c3N)C2)c1 (centres unmarked) [Example B231]
61 | 230 | COc1ccc(-c2ccc(CNC(=O)c3sc4nnc(C)c(C)c4c3N)cc2)cn1 [Example B486]
53 | 200 | Cc1nnc2sc(C(=O)NCc3cccc(OC(F)(F)F)c3)c(N)c2c1C [Example B410]
80 | 190 | Cc1nnc2sc(C(=O)NCc3ccc(F)nc3)c(N)c2c1C [Example B440]
42 | 170 | Nc1c(C(=O)NCc2ccc3c(c2)OC(F)(F)O3)sc2nnc3c(c12)CCCC3 [Example B53]
65 | 120 | Cc1nnc2sc(C(=O)NC3CN(C(=O)c4ccc(OC(F)(F)F)cc4)C3)c(N)c2c1C [Example B409]
69 | 120 | Cc1nnc2sc(C(=O)NCc3ccc(C(F)(F)F)nc3)c(N)c2c1C [Example B443]
68 | 99 | COc1ncccc1-c1ccc(CNC(=O)c2sc3nnc(C)c(C)c3c2N)cc1 [Example B456]
90 | 93 | Cc1nnc2sc(C(=O)NCc3ccc4c(c3)OCO4)c(N)c2c1C [Example B12]
85 | 67 | Cc1nnc2sc(C(=O)NCc3ccc(OC(F)F)nc3)c(N)c2c1C [Example B412]
66 | 63 | Cc1ccc(S(=O)(=O)N2CC(NC(=O)c3sc4nnc(C)c(C)c4c3N)C2)s1 [Example B98]
39 | 59 | Nc1c(C(=O)NCc2ccc(S(=O)(=O)C(F)F)cc2)sc2nnc3c(c12)CCCC3 [Example B427]
63 | 52 | COc1ccc(C(=O)N2CC(NC(=O)c3sc4nnc(C)c(C)c4c3N)C2)cc1 [Example B400]
69 | 41 | Cc1nnc2sc(C(=O)NC3CCN(c4ccc(Cl)cc4)C3)c(N)c2c1C (centres unmarked) [Example B274]
71 | 23 | COc1ccc(CNC(=O)c2sc3nnc(C)c(C)c3c2N)cc1C(F)(F)F [Example B171]
84 | 23 | Cc1nnc2sc(C(=O)NCc3ccc(-c4ccnc(F)c4)cc3)c(N)c2c1C [Example B461]
73 | 17 | Cc1nnc2sc(C(=O)NC3CN(c4nc5ccccc5s4)C3)c(N)c2c1C [Example B422]
69 | 13 | COc1ccc(OC(=O)N2CC(NC(=O)c3sc4nnc(C)c(C)c4c3N)C2)cc1 [Example B334]
67 | 12 | Cc1nnc2sc(C(=O)NC3CN(c4cccnc4)C3)c(N)c2c1C [Example B479]
63 | 11 | Cc1nnc2sc(C(=O)NCc3ccc(-c4cccnc4)cc3)c(N)c2c1C [Example B464]
79 | 7.5 | COc1ccc([C@H]2C[C@@H]2NC(=O)c2sc3nnc(C)c(C)c3c2N)cc1 (single isomer, unassigned) [Example B31]
